Several values for one entry are separate records, joined by “and”; a condition that tells them apart may be missing. Equal entries are not always repeated.
Assay: xn = mol fraction of the nth substance listed

CCC(=O)OCCN1CCNCC1 + CCO
Conditions	viscosity [mPa·s]
293.15 K, 100 kPa, x1 = 0.1216	37.45

CCn1ccnc1 + O
viscosity [mPa·s], 100 kPa
Conditions	298.15 K	308.15 K	318.15 K
x1 = 0.05	1.48	1.16	0.94
x1 = 0.1007	2.04	1.56	1.23
x1 = 0.1995	2.99	2.21	1.7
x1 = 0.2988	3.68	2.67	2.03
x1 = 0.3937	4.05	2.92	2.19
x1 = 0.4933	4.05	2.93	2.21
x1 = 0.6011	3.84	2.81	2.14
x1 = 0.695	3.18	2.41	1.89
x1 = 0.7956	2.65	2.07	1.67
x1 = 0.89	2.27	1.82	1.5
x1 = 0.9542	2.05	1.67	1.39

O=S(=O)([O-])[O-].[K+].[K+] + O
Conditions	viscosity
293.65 K, 100 kPa, x1 = 0.008033	1.089 mPa·s
294.15 K, 100 kPa, x1 = 0.005375	1.042 mPa·s
294.15 K, 100 kPa, x1 = 0.01069	1.109 mPa·s and 1.108 mPa·s
298.15 K, 100 kPa, x1 = 5e-05	0.8905 mPa·s
298.15 K, 100 kPa, x1 = 0.0001	0.891 mPa·s
298.15 K, 100 kPa, x1 = 0.00021	0.892 mPa·s
298.15 K, 100 kPa, x1 = 0.00031	0.893 mPa·s
298.15 K, 100 kPa, x1 = 0.00104	0.9247 mPa·s
298.15 K, 101 kPa, x1 = 0.00655	0.966 mPa·s
298.15 K, 101 kPa, x1 = 0.01242	1.039 mPa·s
303.15 K, 101 kPa, x1 = 0.01242	0.9548 mPa·s
308.15 K, 100 kPa, x1 = 5e-05	0.7195 mPa·s
308.15 K, 100 kPa, x1 = 0.0001	0.72 mPa·s
308.15 K, 100 kPa, x1 = 0.00021	0.721 mPa·s
308.15 K, 100 kPa, x1 = 0.00031	0.722 mPa·s
308.15 K, 100 kPa, x1 = 0.00104	0.7509 mPa·s
308.15 K, 101 kPa, x1 = 0.01242	0.8705 mPa·s
313.15 K, 101 kPa, x1 = 0.01242	0.7905 mPa·s
318.15 K, 101 kPa, x1 = 0.01242	0.7249 mPa·s
323.15 K, 101 kPa, x1 = 0.00318	0.576 mPa·s
323.15 K, 101 kPa, x1 = 0.00655	0.603 mPa·s
323.15 K, 101 kPa, x1 = 0.0113	0.645 mPa·s

O=C(O)C(Cl)(Cl)Cl + CC(=O)c1ccccc1
298.15 K, 101 kPa
Conditions	viscosity [mPa·s]
x1 = 0.0896	2.112
x1 = 0.14	2.402
x1 = 0.2121	2.931
x1 = 0.2939	3.735
x1 = 0.409	5.54
x1 = 0.4876	7.349
x1 = 0.5794	9.33
x1 = 0.6815	11.15

O=C(O)C(Cl)(Cl)Cl + C[N+](C)(C)CCO.[Cl-]
101 kPa, x2 = 0.333
Conditions	viscosity [mPa·s]
293.15 K	645.9
298.15 K	435
303.15 K	302.5
308.15 K	216.1
313.15 K	158.7
318.15 K	119.2
323.15 K	91.41

CCCCN + CCCO
viscosity [mPa·s]
Conditions	298.15 K	303.15 K	313.15 K
100 kPa, x2 = 0.1	0.534	–	–
100 kPa, x2 = 0.198	0.612	–	–
100 kPa, x2 = 0.301	0.711	–	–
100 kPa, x2 = 0.417	0.846	–	–
100 kPa, x2 = 0.501	0.965	–	–
100 kPa, x2 = 0.6	1.117	–	–
100 kPa, x2 = 0.695	1.273	–	–
100 kPa, x2 = 0.786	1.451	–	–
100 kPa, x2 = 0.925	1.76	–	–
101.33 kPa, x1 = 0.095	–	1.64	1.281
101.33 kPa, x1 = 0.1888	–	1.48	1.159
101.33 kPa, x1 = 0.2913	–	1.286	1.018
101.33 kPa, x1 = 0.3804	–	1.129	0.9048
101.33 kPa, x1 = 0.5153	–	0.9113	0.7453
101.33 kPa, x1 = 0.6163	–	0.7686	0.6425
101.33 kPa, x1 = 0.7142	–	0.6509	0.5578
101.33 kPa, x1 = 0.788	–	0.5832	0.5009
101.33 kPa, x1 = 0.9022	–	0.4992	0.4349

CCCCN + CCCCCCC
303.15 K, 101.33 kPa
Conditions	viscosity [mPa·s]
x1 = 0.1262	0.355
x1 = 0.243	0.345
x1 = 0.3214	0.358
x1 = 0.4018	0.358
x1 = 0.4973	0.362
x1 = 0.6195	0.381
x1 = 0.7804	0.434
x1 = 0.8723	0.462

CCCCN + c1ccccc1
viscosity [mPa·s], 101 kPa
Conditions	303.15 K	313.15 K
x1 = 0.009356	0.5633	0.4919
x1 = 0.01948	0.5628	0.4907
x1 = 0.02841	0.5622	0.4905
x1 = 0.03798	0.562	0.4893
x1 = 0.048	0.5618	0.4884
x1 = 0.0558	0.536	–
x1 = 0.05882	0.5617	0.4876
x1 = 0.0669	0.5608	0.4869
x1 = 0.07642	0.5598	0.4861
x1 = 0.08586	0.5588	0.4852
x1 = 0.1165	0.516	–
x1 = 0.2036	0.494	–
x1 = 0.2875	0.479	–
x1 = 0.382	0.465	–
x1 = 0.5164	0.453	–
x1 = 0.5676	0.451	–
x1 = 0.6631	0.448	–
x1 = 0.7656	0.447	–
x1 = 0.8602	0.446	–
x1 = 0.9278	0.444	–
x2 = 0.0974	0.4454	–
x2 = 0.1974	0.4466	–
x2 = 0.5007	0.4542	–
x2 = 0.6051	0.4738	–
x2 = 0.7995	0.5056	–
x2 = 0.9004	0.5322	–

CCCC(=O)OCC + CCCCCC
303.15 K, 101 kPa
Conditions	viscosity [mPa·s]
x1 = 0.1354	0.3067
x1 = 0.2995	0.3404
x1 = 0.3884	0.3564
x1 = 0.4879	0.388
x1 = 0.7244	0.4602

O=C(O)C(Cl)(Cl)Cl + CCOC(C)=O
298.15 K, 101 kPa
Conditions	viscosity [mPa·s]
x1 = 0.1118	0.5878
x1 = 0.184	0.7309
x1 = 0.2807	1.001
x1 = 0.3846	1.449
x1 = 0.4878	2.176
x1 = 0.6142	3.467
x1 = 0.7008	4.709

CCCCN + C1COCCO1
298.15 K, 101 kPa
Conditions	viscosity [mPa·s]
x1 = 0.05	1.094
x1 = 0.1	1.019
x1 = 0.1005	1.018
x1 = 0.15	0.953
x1 = 0.2	0.896
x1 = 0.2025	0.893
x1 = 0.25	0.846
x1 = 0.2973	0.806
x1 = 0.3	0.801
x1 = 0.35	0.761
x1 = 0.3935	0.726
x1 = 0.4	0.725
x1 = 0.45	0.692
x1 = 0.4987	0.665
x1 = 0.5	0.662
x1 = 0.55	0.634
x1 = 0.5971	0.609
x1 = 0.6	0.609
x1 = 0.65	0.585
x1 = 0.6965	0.566
x1 = 0.7	0.564
x1 = 0.75	0.545
x1 = 0.7959	0.529
x1 = 0.8	0.528
x1 = 0.85	0.512
x1 = 0.9	0.498
x1 = 0.9041	0.497
x1 = 0.95	0.486

Cc1ccncc1 + CC(C)(C)O
298.15 K, 101.33 kPa
Conditions	viscosity [mPa·s]
x2 = 0.0724	0.8901
x2 = 0.2166	0.9887
x2 = 0.2902	1.056
x2 = 0.3416	1.122
x2 = 0.507	1.386
x2 = 0.606	1.641
x2 = 0.6484	1.777
x2 = 0.7197	2.085
x2 = 0.8	2.537
x2 = 0.8603	2.959
